B1: IFN-α: type I interferon cytokine; commercial IFN-α is IFN-α1 (protein, UniProt P01562 24-189, looked up)
Interferon alpha-1/13: CDLPETHSLDNRRTLMLLAQMSRISPSSCLMDRHDFGFPQEEFDGNQFQKAPAISVLHELIQQIFNLFTTKDSSAAWDEDLLDKFCTELYQQLNDLEACVMQEERVGETPLMNADSILAVKKYFRRITLYLTEKKYSPCAWEVVRAEIMRSLSLSTNLQERLRRKE

What was measured:
[1] = test system: bovine viral diarrhea virus (BVDV) NADL strain; assay: BVDV antiviral drug-drug combination assay (MTS, MacSynergy II); assay type: cell-based; settings: in combination with IFN-α; MDBK cells with BVDV virus
Procedure: (§1) The substances were solubilized in DMSO. Pegylated interferon-alpha (IFN) was supplied by Southern Research Institute and dissolved in sterile dH2O.
(§2) Drug-drug interactions were assayed by testing both the antiviral and cytotoxic activities of a wide range of concentrations of combinations of the compounds and IFN. The bovine viral diarrhea virus (BVDV) NADL strain antiviral evaluation assay and drug-drug combination analysis was performed as described in Antimicro. Agents Chemother. 2003; 47: 2293-8. BVDV is frequently employed as a hepatitis C virus surrogate model in the study of antiviral agents (Antiviral Res. 2003; 60:1-15). Madin-Darby bovine kidney cells were trypsinized, pelleted, counted and resuspended at 1×10^4/well in tissue culture medium in 96-well flat bottom, tissue culture plates in volume of 100 μl per well. […] Five concentrations of substance were evaluated in combination with nine different concentrations IFN; antiviral efficacy and cellular toxicity were monitored by MTS staining at the experimental endpoint.
(§3) At assay termination, the assay plates were stained with the soluble tetrazolium-based dye MTS (CellTiter Reagent Promega) to determine cell viability and quantify compound toxicity. […]
(§4) Theoretical additive values are calculated from the dose response curves for each substance used individually. […]

[2] = test system: Madin-Darby bovine kidney cells; assay: BVDV assay, combined cytotoxicity (MTS staining); assay type: cell-based; settings: in combination with IFN-α; MDBK cells
Procedure: as §1, §2, §3, §4

HCV = settings: cited from earlier work

Row | Molecule | combined antiviral activity (drug-drug interaction) [1] | combined cytotoxic activity (drug-drug interaction) [2] | sustained antiviral response, share of patients (HCV; IFN-α therapy in chronic HCV infected patients) | sustained response (HCV; combination therapy with ribavirin)
1 | O=C(c1ccccc1)c1ccc2nc(NC(=O)c3csc(C4CCN(c5ncnc6ccsc56)CC4)n3)[nH]c2c1 [Compound 273, 2-(1-Thieno[3,2-d]pyrimidin-4-yl-piperidin-4-yl)-thiazole-4-carboxylic acid (5-benzoyl-1H-benzoimidazol-2-yl)-amide] | highly synergistic behaviour | highly antagonistic behaviour |  | 
2 | B1 |  |  | 15-20% | 38-43%
